# Assay results published in patent US8993637B2 (priority 2013, dated 2015).
# Test system: RAW 264.7 macrophages
# Experiment: ROS production assay in LPS-activated macrophages
# Assay type: cell-based, murine
# Conditions: NAC 10 mM; 30 min before and during LPS (1 μg/ml) stimulation, 0-4 h
# Description: ROS production was measured as the relative fluorescence intensity. […] The data are expressed as the mean±SD for three separate experiments. *p<0.05, **p<0.01 compared to the LPS-treated group. RAW-Blue™ cells (Murine macrophages RAW264.7 stably transfected with the NF-κB reporter gene) purchased from InvivoGen (San Diego, Calif.). LPS (from Escherichia coli 0111:B4) and mouse antibodies against phospho-ERK1/2, phospho-JNK1/2, and phospho-p38 (all from Sigma, St. Louis, Mo.). Rabbit antibodies against mouse ERK1, JNK1, and p38, and HRP-labeled second antibodies were purchased from Santa Cruz Biotechnology, and IL-1β, IL-6, and TNF-α ELISA kits from R&D Systems. ROS production assay, NO production assay, NF-κB reporter assay, ELISA, and Western blotting were performed as described previously.
smiles,measurement,value
"CC(=O)N[C@@H](CS)C(=O)O [NAC, N-acetyl cysteine, reference compound]",LPS-induced increase in ROS production,reduced
